We go through two compounds from paper PMC4170518 (Biochemistry, 2013).

SMILES strings stand for the structures.

For assay [1], the target named is T1, class II fructose 1,6-bisphosphate aldolase (MtFBA) (Mycobacterium tuberculosis, UniProt P9WQA3). Description: biochemical.
Assay [2] deals with T1, class II fructose 1,6-bisphosphate aldolase (MtFBA). Description: biochemical. In kind it is binding.

T1 sequence (P9WQA3 whole entry): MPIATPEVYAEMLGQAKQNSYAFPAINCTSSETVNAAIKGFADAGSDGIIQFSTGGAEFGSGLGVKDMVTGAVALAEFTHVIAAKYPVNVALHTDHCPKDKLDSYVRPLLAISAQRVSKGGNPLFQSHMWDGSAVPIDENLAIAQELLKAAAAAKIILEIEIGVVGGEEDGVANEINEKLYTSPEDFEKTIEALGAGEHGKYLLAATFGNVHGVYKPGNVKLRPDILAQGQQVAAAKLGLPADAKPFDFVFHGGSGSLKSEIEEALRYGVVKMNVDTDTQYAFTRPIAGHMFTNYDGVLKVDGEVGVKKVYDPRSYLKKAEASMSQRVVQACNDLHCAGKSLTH

In assay [1], `O=C(CO)COP(=O)(O)O` [DHAP, dihydroxyacetone phosphate] displayed a Ki of 238 ± 20 µM.

`O=C(COP(=O)(O)O)NO` [PGH, phosphoglycolohydroxamate] had a dissociation constant Kd in assay [2] of 0.0211 ± 0.0002 µM.

By Ki is commonly meant the dissociation constant of the complex between target and ligand, obtained from inhibition or displacement. Read a low Ki as higher affinity. What is called Kd is the equilibrium constant for the complex coming apart. High values mean a looser complex, low ones a tighter complex.
